Assay: Effect of buffer concentration on osmolality
Format: physicochemical
Experimental: The effect of buffer concentration on osmolality was measured for HEPES and potassium phosphate buffer systems and plotted in FIG. 8A. With HEPES, a higher buffer concentration can be achieved with a lower osmolality (slope 1.37 mOsmol/Kg per mMoles/L HEPES), as compared to phosphate buffers (slope 2.21 mOsmol/Kg per mMoles/L phosphate).

For `O=S(=O)(O)CCN1CCN(CCO)CC1` [HEPES, 4-(2-hydroxyethyl)-1-piperazineethanesulfonic acid], the “slope of osmolality against buffer concentration” value was 1.37 mOsmol/Kg per mMoles/L.

For phosphate, the “slope of osmolality against buffer concentration” value was 2.21 mOsmol/Kg per mMoles/L.

— patent US20250281512A1, “BUFFERING AGENT-CONTAINING COMPOSITIONS AND METHODS OF USING SAME” (KNOW BIO, LLC, priority 2022, published 2025)
